Experimental data: ChEMBL document CHEMBL1909046, “DrugMatrix in vitro pharmacology data”

What was measured:
[1] = target: T1, Glucocorticoid receptor (Homo sapiens, UniProt P04150); assay: biochemical
T1 sequence (P04150 whole entry): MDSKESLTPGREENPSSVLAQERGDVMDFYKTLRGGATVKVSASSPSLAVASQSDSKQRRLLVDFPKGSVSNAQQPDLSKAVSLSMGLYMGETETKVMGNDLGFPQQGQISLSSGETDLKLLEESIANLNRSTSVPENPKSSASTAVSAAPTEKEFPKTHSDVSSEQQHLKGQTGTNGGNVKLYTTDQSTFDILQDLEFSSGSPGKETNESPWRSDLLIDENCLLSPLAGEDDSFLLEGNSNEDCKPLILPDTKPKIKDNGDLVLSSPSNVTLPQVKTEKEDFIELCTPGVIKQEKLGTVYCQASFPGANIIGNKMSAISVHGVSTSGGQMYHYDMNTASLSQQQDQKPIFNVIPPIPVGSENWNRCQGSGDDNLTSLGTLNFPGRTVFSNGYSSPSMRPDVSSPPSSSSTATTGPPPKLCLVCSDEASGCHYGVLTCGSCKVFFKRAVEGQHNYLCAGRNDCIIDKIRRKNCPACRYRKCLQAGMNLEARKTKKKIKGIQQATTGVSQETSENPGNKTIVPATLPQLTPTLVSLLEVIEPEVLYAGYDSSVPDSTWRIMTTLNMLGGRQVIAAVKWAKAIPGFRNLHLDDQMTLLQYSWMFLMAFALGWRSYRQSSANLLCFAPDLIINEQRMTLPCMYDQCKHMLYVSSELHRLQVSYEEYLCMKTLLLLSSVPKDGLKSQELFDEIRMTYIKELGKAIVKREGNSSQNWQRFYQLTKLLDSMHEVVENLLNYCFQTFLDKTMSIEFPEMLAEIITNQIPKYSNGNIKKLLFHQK

[2] = target: Voltage-gated inwardly rectifying potassium channel KCNH2 (Homo sapiens, UniProt Q12809)
Voltage-gated inwardly rectifying potassium channel KCNH2, sequence (Q12809 whole entry): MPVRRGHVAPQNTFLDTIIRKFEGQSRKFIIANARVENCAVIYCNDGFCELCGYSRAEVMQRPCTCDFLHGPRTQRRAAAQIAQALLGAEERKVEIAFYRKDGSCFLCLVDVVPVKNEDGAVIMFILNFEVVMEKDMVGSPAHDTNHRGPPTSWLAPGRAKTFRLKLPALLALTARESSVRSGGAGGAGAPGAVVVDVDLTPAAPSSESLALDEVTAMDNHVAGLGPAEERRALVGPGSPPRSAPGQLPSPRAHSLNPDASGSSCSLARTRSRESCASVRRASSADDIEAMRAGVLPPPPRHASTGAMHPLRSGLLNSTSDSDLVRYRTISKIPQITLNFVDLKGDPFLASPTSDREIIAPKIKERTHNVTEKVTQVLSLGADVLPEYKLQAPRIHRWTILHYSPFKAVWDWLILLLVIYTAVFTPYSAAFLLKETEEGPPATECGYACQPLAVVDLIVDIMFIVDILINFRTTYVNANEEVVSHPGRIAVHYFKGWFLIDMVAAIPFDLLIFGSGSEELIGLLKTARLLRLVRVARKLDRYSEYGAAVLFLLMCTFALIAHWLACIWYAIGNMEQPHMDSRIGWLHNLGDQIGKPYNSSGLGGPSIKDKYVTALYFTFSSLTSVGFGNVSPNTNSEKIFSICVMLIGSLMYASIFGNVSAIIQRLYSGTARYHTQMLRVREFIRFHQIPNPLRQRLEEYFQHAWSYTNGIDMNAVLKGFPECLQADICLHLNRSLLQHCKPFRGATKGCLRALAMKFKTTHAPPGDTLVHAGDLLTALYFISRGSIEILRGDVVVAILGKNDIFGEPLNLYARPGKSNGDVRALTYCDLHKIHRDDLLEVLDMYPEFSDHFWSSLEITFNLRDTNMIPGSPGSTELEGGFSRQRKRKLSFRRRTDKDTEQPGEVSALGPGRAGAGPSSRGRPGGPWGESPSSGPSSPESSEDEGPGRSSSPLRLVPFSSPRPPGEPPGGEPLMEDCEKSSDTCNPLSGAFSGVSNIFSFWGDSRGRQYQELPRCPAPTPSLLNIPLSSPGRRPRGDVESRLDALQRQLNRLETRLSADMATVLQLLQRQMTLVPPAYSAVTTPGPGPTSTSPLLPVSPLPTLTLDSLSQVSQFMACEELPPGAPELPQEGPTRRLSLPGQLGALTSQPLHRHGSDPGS

[3] = target: Cytochrome P450 2C9 (Homo sapiens, UniProt P11712)
Cytochrome P450 2C9, sequence (P11712 whole entry): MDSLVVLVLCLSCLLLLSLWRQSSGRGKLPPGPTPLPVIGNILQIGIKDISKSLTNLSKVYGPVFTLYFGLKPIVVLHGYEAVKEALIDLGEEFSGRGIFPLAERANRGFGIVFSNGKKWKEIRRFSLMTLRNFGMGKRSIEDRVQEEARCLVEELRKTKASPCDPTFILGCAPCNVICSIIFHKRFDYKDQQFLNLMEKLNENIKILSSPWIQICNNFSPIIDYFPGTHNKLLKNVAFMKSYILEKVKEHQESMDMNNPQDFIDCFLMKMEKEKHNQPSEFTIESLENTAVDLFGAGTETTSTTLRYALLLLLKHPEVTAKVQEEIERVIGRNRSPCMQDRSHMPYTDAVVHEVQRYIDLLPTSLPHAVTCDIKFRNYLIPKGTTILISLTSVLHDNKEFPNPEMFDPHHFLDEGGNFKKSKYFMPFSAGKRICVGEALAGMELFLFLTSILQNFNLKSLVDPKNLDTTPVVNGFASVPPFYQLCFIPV

SMILES | IC50 [1] [nM] | Ki [1] [nM] | IC50 [2] [nM] | Ki [2] [nM] | IC50 [3] [nM]
CC(=O)[C@@]1(O)CC[C@H]2[C@@H]3C[C@H](C)C4=CC(=O)CC[C@]4(C)[C@H]3CC[C@@]21C | 19 | 8.6 | – | – | –
C[C@@H]1CN(c2c(F)c(N)c3c(=O)c(C(=O)O)cn(C4CC4)c3c2F)C[C@H](C)N1 [SPARFLOXACIN] | – | – | 47100 | 38600 | –
CC1(C)O[C@@H]2C[C@H]3[C@@H]4CCC5=CC(=O)C=C[C@]5(C)[C@@]4(F)[C@@H](O)C[C@]3(C)[C@]2(C(=O)CO)O1 [TRIAMCINOLONE ACETONIDE] | 4.41 | 2.01 | – | – | –
Cc1c(C)c2c(c(C)c1O)CCC(C)(COc1ccc(CC3SC(=O)NC3=O)cc1)O2 (configuration not stated) [TROGLITAZONE] | – | – | – | – | 4000
